Reference: the CheMixHub viscosity set

Test: xn = mol fraction of the nth substance listed

CCCCOCCOCCO + ClC(Cl)Cl
298.15 K, 101.33 kPa
Settings	viscosity [mPa·s]
x1 = 0.0036	0.538
x1 = 0.013	0.559
x1 = 0.0198	0.572
x1 = 0.0347	0.607
x1 = 0.0576	0.674
x1 = 0.0854	0.755
x1 = 0.1232	0.882
x1 = 0.1802	1.118
x1 = 0.2156	1.281
x1 = 0.2883	1.65
x1 = 0.3513	2.01
x1 = 0.427	2.46
x1 = 0.486	2.828
x1 = 0.539	3.148
x1 = 0.6168	3.591
x1 = 0.6945	4.021
x1 = 0.7358	4.19
x1 = 0.7844	4.415
x1 = 0.8159	4.545
x1 = 0.859	4.758
x1 = 0.9079	4.913
x1 = 0.94	5.021
x1 = 0.9514	5.04
x1 = 0.9582	5.061
x1 = 0.9656	5.083
x2 = 0.0054	5.185

O=S1(=O)CCCC1 + ClCCCl
viscosity [mPa·s], 100 kPa
Settings	x1 = 0.0168	x1 = 0.1062	x1 = 0.2045	x1 = 0.3091	x1 = 0.4077	x1 = 0.5125	x1 = 0.6483	x1 = 0.8007	x1 = 0.9708
303.15 K	0.8741	1.693	2.594	3.559	4.475	5.452	6.725	8.157	9.753
308.15 K	0.8027	1.515	2.303	3.149	3.949	4.803	5.911	7.157	8.551
313.15 K	0.7524	1.384	2.086	2.837	3.545	4.3	5.28	6.382	7.617

CCCCOCCOCCO + ClCCl
298.15 K, 101.33 kPa
Settings	viscosity [mPa·s]
x1 = 0.0047	0.418
x1 = 0.012	0.433
x1 = 0.02	0.448
x1 = 0.0388	0.48
x1 = 0.0685	0.56
x1 = 0.1079	0.649
x1 = 0.1533	0.78
x1 = 0.1882	0.907
x1 = 0.2206	1.028
x1 = 0.2751	1.226
x1 = 0.3166	1.409
x1 = 0.3515	1.576
x1 = 0.397	1.807
x1 = 0.4383	2.028
x1 = 0.4759	2.224
x1 = 0.5118	2.425
x1 = 0.5496	2.627
x1 = 0.6026	2.965
x1 = 0.6535	3.267
x1 = 0.7124	3.628
x1 = 0.7606	3.893
x1 = 0.8051	4.163
x1 = 0.854	4.458
x1 = 0.9019	4.724
x1 = 0.9342	4.893
x1 = 0.9731	5.104

Nc1ccccc1Cl + Clc1cccc(Cl)c1
viscosity [mPa·s], 101 kPa
Settings	x1 = 0.1088	x1 = 0.2155	x1 = 0.3202	x1 = 0.4228	x1 = 0.5235	x1 = 0.6224	x1 = 0.7194	x1 = 0.8147	x1 = 0.9082
303.15 K	1.108	1.292	1.499	1.732	1.994	2.288	2.615	2.979	3.382
308.15 K	1.043	1.211	1.398	1.607	1.84	2.098	2.382	2.695	3.038
313.15 K	0.9857	1.138	1.308	1.496	1.703	1.931	2.179	2.45	2.743
318.15 K	0.9257	1.066	1.222	1.392	1.579	1.781	2.001	2.237	2.491

CC(O)CC(C)(C)O (centres undefined) + Clc1ccccc1
viscosity [mPa·s], 101 kPa
Settings	x1 = 0.0989	x1 = 0.1989	x1 = 0.2931	x1 = 0.3916	x1 = 0.4927	x1 = 0.5867	x1 = 0.6888	x1 = 0.7938	x1 = 0.8999
308.15 K	0.7755	0.9332	1.164	1.513	2.151	2.823	4.238	6.453	10.85
318.15 K	0.6372	0.7412	0.9438	1.242	1.814	2.278	3.416	5.241	9.228

Nc1ccccc1Cl + Clc1ccccc1Cl
viscosity [mPa·s], 101 kPa
Settings	x1 = 0.1063	x1 = 0.2111	x1 = 0.3145	x1 = 0.4164	x1 = 0.517	x1 = 0.6162	x1 = 0.7141	x1 = 0.8107	x1 = 0.906
303.15 K	1.4	1.584	1.786	2.008	2.251	2.516	2.805	3.119	3.458
308.15 K	1.295	1.461	1.642	1.84	2.054	2.287	2.539	2.81	3.101
313.15 K	1.192	1.342	1.506	1.683	1.875	2.081	2.303	2.54	2.792
318.15 K	1.102	1.24	1.39	1.551	1.724	1.909	2.105	2.313	2.532

Cc1ccccc1N + NCCO
viscosity [mPa·s], 100 kPa
Settings	x1 = 0.0997	x1 = 0.1749	x1 = 0.2629	x1 = 0.3629	x1 = 0.4797	x1 = 0.5707	x1 = 0.6849	x1 = 0.7826	x1 = 0.8935
303.15 K	13.32	12.49	11.51	10.39	9.093	8.076	6.799	5.704	4.459
308.15 K	11.11	10.42	9.62	8.704	7.633	6.796	5.745	4.842	3.815
313.15 K	9.063	8.521	7.884	7.159	6.309	5.646	4.812	4.095	3.278
318.15 K	7.032	6.632	6.161	5.624	4.994	4.503	3.884	3.352	2.744

O=S1(=O)CCCC1 + NCCO
viscosity [mPa·s], 101 kPa
Settings	x2 = 0.1	x2 = 0.3369	x2 = 0.5426	x2 = 0.7423	x2 = 0.8999
303.15 K	14.02	11.47	9.923	9.547	9.78
323.15 K	7.103	6.2	5.815	5.85	6.195

CC(O)CC(C)(C)O (centres undefined) + Nc1ccccc1
viscosity [mPa·s], 101 kPa
Settings	x1 = 0.0963	x1 = 0.1952	x1 = 0.2931	x1 = 0.3958	x1 = 0.4941	x1 = 0.5915	x1 = 0.6855	x1 = 0.8047	x1 = 0.8966
308.15 K	3.187	3.549	4.028	4.615	5.519	6.694	8.195	10.82	14.34
318.15 K	2.348	2.62	3.031	3.543	4.32	5.405	6.826	9.45	12.55

Cc1ccc(O)cc1 + Nc1ccccc1
viscosity [mPa·s], 101.33 kPa
Settings	x1 = 0.2696	x1 = 0.4987	x1 = 0.5914	x1 = 0.7696	x1 = 0.8857
298.15 K	6.95	10.7	12.4	14.4	14.5
323.15 K	2.93	3.97	4.26	4.62	4.71

O=S1(=O)CCCC1 + Nc1ccccc1
viscosity [mPa·s], 101 kPa
Settings	x2 = 0.1	x2 = 0.1955	x2 = 0.3007	x2 = 0.3902	x2 = 0.4997	x2 = 0.6003	x2 = 0.7027	x2 = 0.7982	x2 = 0.8995
303.15 K	9.14	8.22	7.31	6.62	5.86	5.24	4.66	4.17	3.69
308.15 K	8.01	7.2	6.39	5.78	5.1	4.55	4.03	3.59	3.17
313.15 K	7.05	6.33	5.61	5.06	4.46	3.97	3.51	3.12	2.75

CCC(C)O (centres undefined) + O
Settings	viscosity [mPa·s]
293.15 K, 100 kPa, x1 = 0.58	3.807
296 K, 101 kPa, x2 = 0.1	3.008
296 K, 101 kPa, x2 = 0.68	3.67
297 K, 101 kPa, x2 = 0.3	2.923
297 K, 101 kPa, x2 = 0.4	3.074
297 K, 101 kPa, x2 = 0.5	3.242
297 K, 101 kPa, x2 = 0.6	3.416
303 K, 101 kPa, x1 = 0.01	0.9465
303 K, 101 kPa, x2 = 0.1	2.363
303 K, 101 kPa, x2 = 0.3	2.38
303 K, 101 kPa, x2 = 0.4	2.495
303 K, 101 kPa, x2 = 0.5	2.625
303 K, 101 kPa, x2 = 0.6	2.759
303 K, 101 kPa, x2 = 0.68	2.853
303 K, 101 kPa, x2 = 0.98	1.103
304 K, 101 kPa, x2 = 0.97	1.229
305 K, 101 kPa, x2 = 0.2	2.185
313 K, 101 kPa, x1 = 0.01	0.7564
313 K, 101 kPa, x2 = 0.1	1.715
313 K, 101 kPa, x2 = 0.2	1.702
313 K, 101 kPa, x2 = 0.3	1.739
313 K, 101 kPa, x2 = 0.4	1.815
313 K, 101 kPa, x2 = 0.5	1.903
313 K, 101 kPa, x2 = 0.6	1.993
313 K, 101 kPa, x2 = 0.68	2.06
313 K, 101 kPa, x2 = 0.97	0.97
313 K, 101 kPa, x2 = 0.98	0.8638
323 K, 101 kPa, x1 = 0.01	0.622
323 K, 101 kPa, x2 = 0.1	1.28
323 K, 101 kPa, x2 = 0.2	1.28
323 K, 101 kPa, x2 = 0.3	1.312
323 K, 101 kPa, x2 = 0.4	1.364
323 K, 101 kPa, x2 = 0.5	1.427
323 K, 101 kPa, x2 = 0.6	1.492
323 K, 101 kPa, x2 = 0.68	1.541
323 K, 101 kPa, x2 = 0.97	0.773
323 K, 101 kPa, x2 = 0.98	0.6986
323.15 K, 100 kPa, x1 = 0.02	1.324
323.15 K, 100 kPa, x1 = 0.58	1.517

C[N+](C)(C)CCO.O=C1O[C@H]([C@@H](O)CO)C([O-])=C1O + O
viscosity [mPa·s], 100 kPa
Settings	x1 = 0.001102	x1 = 0.001323	x1 = 0.001802	x1 = 0.002629	x1 = 0.00391	x1 = 0.005531
293.15 K	1.048	1.056	1.072	1.099	1.141	1.192
298.15 K	0.933	0.94	0.956	0.98	1.018	1.065
303.15 K	0.838	0.845	0.859	0.882	0.917	0.96
308.15 K	0.758	0.764	0.778	0.799	0.832	0.872
313.15 K	0.69	0.696	0.709	0.729	0.76	0.798
